Data as given in patent US20150196531A1, “Methods and Compositions For Treating Sleep-Related Breathing Disorders” (Sunovion Pharmaceuticals Inc., priority 2007, published 2015).

Key:
[1] = biological target: T1, dopamine uptake, rat reuptake transporter (synaptosomes from male Wistar rat striatum) (Rattus norvegicus, UniProt P23977); test: Dopamine functional uptake assay for rat reuptake transporter (synaptosomes); type: biochemical; settings: for IC50: rat synaptosomes, [3H]-dopamine uptake, read-out: Inhibition of monoamine uptake, Rat DA, IC50
T1 construct: synaptosomes isolated in a 0.32 M sucrose buffer from a male Wistar rat striatum; from tissue; host or cells: male Wistar rat striatum synaptosomes
Experimental: (§1) The concentrations of radioligand employed in the assays were at or below the KM for the monoamine substrates with their cognate transporters. Compounds were tested at 5 to 10 different concentrations in duplicate in order to obtain full inhibition curves.
Quantification of dopamine uptake was performed using synaptosomes isolated in a 0.32 M sucrose buffer from a male Wistar rat striatum. The uptake of radiolabelled dopamine by synaptosomes (20 μg of proteins/point) was allowed by incubating them for 15 minutes at 37° C. in the presence of test compounds and [^3H]-dopamine (0.1 μCi/point). The experiment was performed in a deep well.
Synaptosomes and [^3H]-dopamine were prepared in a Krebs buffer pH 7.4 containing 25 mM NaHCO3, 11 mM glucose and 50 μM ascorbic acid. This incubation buffer was oxygenated for 5 minutes before incubation. Basal control was incubated for 15 minutes at 4° C. in order to avoid any uptake. Following this incubation, the uptake was stopped by filtration through a unifilter 96-wells GFB Packard plate washed with Krebs buffer containing 25 mM NaHCO3in order to eliminate free [^3H]-dopamine. The radioactivity associated to the synaptosomes retained onto the unifilter corresponding to the uptake was then measured with a microplate scintillation counter (Topcount, Packard) using a scintillation fluid.

[2] = biological target: 5-HT uptake, rat reuptake transporter (synaptosomes from male Wistar rat cortex) (Rattus norvegicus, UniProt P31652); settings: at a 10 μM concentration
Experimental: as §1
Quantification of 5HT uptake was performed using synaptosomes isolated in a 0.32M sucrose buffer from a male Wistar rat cortex. The uptake of radiolabelled 5-HT by synaptosomes (100 μg of proteins/point) was allowed by incubating them in a well for 15 min at 37° C. in presence of test compounds and [^3H]5-hydroxytryptamine (0.1 μCi/point).
Synaptosomes and [^3H]5-hydroxytryptamine were prepared in a Krebs buffer pH 7.4 containing 25 mM NaHCO3, 11 mM mM glucose and 50 μM ascorbic acid. This incubation buffer was oxygenated during 5 minutes before incubation. Basal control was incubated for 15 minutes at 4° C. in order to avoid any uptake. […] The radioactivity associated to the synaptosomes retained on the unifilter corresponding to the uptake was then measured with a microplate scintillation counter (Topcount, Packard) using a scintillation fluid. Nonspecific binding was measured in the presence of an excess of cold, unlabeled ligand. […]

[3] = biological target: norepinephrine uptake, rat reuptake transporter (synaptosomes from male Wistar rat hypothalamus) (Rattus norvegicus, UniProt Q63380); test: Norepinephrine functional uptake assay for rat reuptake transporter (synaptosomes); type: biochemical; settings: [3H]-norepinephrine uptake, read-out: Inhibition of monoamine uptake, Rat NE, IC50
Experimental: as §1
Quantification of norepinephrine uptake was performed using synaptosomes isolated in a 0.32 M sucrose buffer from a male Wistar rat hypothalamus. The uptake of radiolabelled norepinephrine by synaptosomes (100 μg of proteins/point) was allowed by incubating them for 20 minutes at 37° C. in presence of test compounds and [^3H]-norepinephrine (0.1 μCi/point). The experiment was performed in a deep well.
Synaptosomes and [^3H]-norepinephrine were prepared in a Krebs buffer pH 7.4 containing 25 mM NaHCO3, 11 mM glucose and 50 μM ascorbic acid. This incubation buffer was oxygenated for 5 minutes before incubation. Basal control was incubated for 20 minutes at 4° C. in order to avoid any uptake. Following this incubation, the uptake was stopped by filtration through a unifilter 96-wells GFB. Packard plate washed with Krebs buffer containing 25 mM NaHCO3 in order to eliminate the free [^3H]-norepinephrine. The radioactivity associated to the synaptosomes retained onto the unifilter corresponding to the uptake was then measured with a microplate scintillation counter (Topcount, Packard) using a scintillation fluid.

[4] = biological target: recombinant human dopamine transporter expressed in CHO-K1 cells (Homo sapiens, UniProt Q01959)
Sequence of recombinant human dopamine transporter expressed in CHO-K1 cells (Q01959 whole entry): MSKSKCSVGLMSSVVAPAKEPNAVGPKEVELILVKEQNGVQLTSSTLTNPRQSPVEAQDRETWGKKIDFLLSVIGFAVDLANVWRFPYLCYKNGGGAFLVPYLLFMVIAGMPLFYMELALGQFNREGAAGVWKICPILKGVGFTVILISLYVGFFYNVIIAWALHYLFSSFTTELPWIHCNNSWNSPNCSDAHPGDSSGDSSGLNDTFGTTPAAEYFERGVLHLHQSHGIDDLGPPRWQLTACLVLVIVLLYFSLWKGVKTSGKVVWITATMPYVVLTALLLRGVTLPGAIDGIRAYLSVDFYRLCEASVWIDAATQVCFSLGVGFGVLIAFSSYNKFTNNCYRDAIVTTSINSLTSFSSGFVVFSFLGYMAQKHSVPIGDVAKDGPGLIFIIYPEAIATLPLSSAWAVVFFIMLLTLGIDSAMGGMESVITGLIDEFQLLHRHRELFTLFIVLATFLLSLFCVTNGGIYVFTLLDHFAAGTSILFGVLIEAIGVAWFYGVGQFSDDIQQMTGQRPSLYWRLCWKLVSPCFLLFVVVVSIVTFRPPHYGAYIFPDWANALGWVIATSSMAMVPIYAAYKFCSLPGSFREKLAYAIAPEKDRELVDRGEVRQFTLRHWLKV
Experimental: as §1
Test compound and/or vehicle was preincubated with cells (4×10^5/ml) in modified Tris-HEPES buffer pH 7.1 for 20 minutes at 25° C. and 50 nM [^3H]Dopamine was then added for an additional 10 minute incubation period. A lysate was obtained from solubilized cells and the amount of tritium in the lysate was measured using a liquid scintillation counter to determine [^3H]Dopamine uptake. Reduction of [^3H]Dopamine uptake by 50 percent or more (≧50%) relative to 10 μM nomifensine indicates significant inhibitory activity.

Sequence of norepinephrine uptake, rat reuptake transporter (synaptosomes from male Wistar rat hypothalamus) (Q63380 1-617): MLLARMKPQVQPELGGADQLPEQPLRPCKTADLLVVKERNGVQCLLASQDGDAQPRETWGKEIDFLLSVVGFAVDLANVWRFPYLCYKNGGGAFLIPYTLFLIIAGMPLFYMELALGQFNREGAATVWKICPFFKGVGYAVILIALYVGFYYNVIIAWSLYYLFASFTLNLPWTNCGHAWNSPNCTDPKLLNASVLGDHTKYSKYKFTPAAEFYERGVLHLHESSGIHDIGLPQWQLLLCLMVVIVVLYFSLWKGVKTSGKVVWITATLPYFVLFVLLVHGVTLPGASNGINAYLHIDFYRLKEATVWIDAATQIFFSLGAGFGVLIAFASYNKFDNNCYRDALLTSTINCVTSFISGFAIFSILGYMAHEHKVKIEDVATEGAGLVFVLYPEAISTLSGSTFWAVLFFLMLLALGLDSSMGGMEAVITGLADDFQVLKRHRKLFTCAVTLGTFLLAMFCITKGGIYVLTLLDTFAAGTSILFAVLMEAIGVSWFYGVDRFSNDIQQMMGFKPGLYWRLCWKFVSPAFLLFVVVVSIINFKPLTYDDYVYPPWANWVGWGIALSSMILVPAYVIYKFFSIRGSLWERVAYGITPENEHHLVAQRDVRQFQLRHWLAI
T1 sequence (P23977 whole entry): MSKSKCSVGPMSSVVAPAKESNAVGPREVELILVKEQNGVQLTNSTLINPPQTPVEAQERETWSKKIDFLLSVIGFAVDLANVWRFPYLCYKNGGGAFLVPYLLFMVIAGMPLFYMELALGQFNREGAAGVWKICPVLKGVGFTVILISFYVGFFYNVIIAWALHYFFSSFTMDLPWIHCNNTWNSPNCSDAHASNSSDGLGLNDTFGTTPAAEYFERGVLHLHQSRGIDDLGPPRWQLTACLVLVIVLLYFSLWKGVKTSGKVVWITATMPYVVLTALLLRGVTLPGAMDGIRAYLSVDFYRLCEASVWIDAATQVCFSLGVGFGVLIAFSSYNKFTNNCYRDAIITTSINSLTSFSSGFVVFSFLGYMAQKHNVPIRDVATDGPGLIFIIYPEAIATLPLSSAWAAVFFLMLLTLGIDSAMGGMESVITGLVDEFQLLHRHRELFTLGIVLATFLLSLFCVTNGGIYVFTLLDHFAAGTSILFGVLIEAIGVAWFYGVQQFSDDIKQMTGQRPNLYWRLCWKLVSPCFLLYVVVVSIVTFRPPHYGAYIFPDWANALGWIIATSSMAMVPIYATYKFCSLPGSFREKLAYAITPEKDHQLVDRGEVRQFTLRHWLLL
Sequence of 5-HT uptake, rat reuptake transporter (synaptosomes from male Wistar rat cortex) (P31652 whole entry): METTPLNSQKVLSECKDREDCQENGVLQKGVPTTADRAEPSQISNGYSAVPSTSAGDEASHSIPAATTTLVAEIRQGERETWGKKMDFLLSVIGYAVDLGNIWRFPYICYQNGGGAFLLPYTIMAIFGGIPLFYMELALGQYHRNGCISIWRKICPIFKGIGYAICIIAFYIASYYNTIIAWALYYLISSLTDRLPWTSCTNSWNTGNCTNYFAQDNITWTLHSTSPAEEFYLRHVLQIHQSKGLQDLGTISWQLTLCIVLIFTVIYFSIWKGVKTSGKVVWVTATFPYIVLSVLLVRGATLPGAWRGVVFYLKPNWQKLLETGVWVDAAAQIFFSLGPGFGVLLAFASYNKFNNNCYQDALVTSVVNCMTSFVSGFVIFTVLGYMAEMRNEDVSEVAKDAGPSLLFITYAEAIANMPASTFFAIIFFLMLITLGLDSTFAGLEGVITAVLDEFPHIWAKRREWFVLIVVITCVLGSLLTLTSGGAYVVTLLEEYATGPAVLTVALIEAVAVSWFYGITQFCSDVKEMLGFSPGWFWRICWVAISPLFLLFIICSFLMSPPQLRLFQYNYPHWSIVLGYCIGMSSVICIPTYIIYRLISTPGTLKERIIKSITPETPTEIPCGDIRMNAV

CN(C)CC(c1ccc(O)cc1)C1(O)CCCCC1 (single isomer, unassigned; (+)) [(+)-O-desmethylvenlafaxine]
Inhibition of functional reuptake, Rat DA (IC50 not given) ([1]; at a 10 μM concentration): — (— indicates less than 50% inhibition of functional reuptake at a 10 μM concentration.) | Inhibition of functional reuptake, Rat 5-HT (IC50 not given) [2]: — (— indicates less than 50% inhibition of functional reuptake at a 10 μM concentration.) | IC50 [3]: 1.7 µM | Inhibition of functional reuptake, Human DA (IC50 not given) [4]: — (key: — indicates less than 50% inhibition of functional reuptake at a 10 μM concentration.)

CN(C)CC(c1ccc(O)cc1)C1(O)CCCCC1 (single isomer, unassigned; (-)) [(−)-O-desmethylvenlafaxine]
IC50 [1]: 5.7 µM | IC50 [3]: 0.43 µM

CN(C)CC(c1ccc(O)cc1)C1(O)CCCCC1 (racemic) [Racemic O-desmethylvenlafaxine, O-desmethylvenlafaxine]
IC50 [1]: 7.5 µM | IC50 [3]: 1.5 µM | Inhibition of functional reuptake, Human DA (IC50 not given) [4]: — (key: — indicates less than 50% inhibition of functional reuptake at a 10 μM concentration.)
